# In paper PMC6853232, “Discovery and evaluation of novel synthetic 5-alkyl-4-oxo-4,5-dihydro-[1,2,4]triazolo[4,3-a]quinoxaline-1-carbox-amide derivatives as anti-inflammatory agents” (Journal of Enzyme Inhibition and Medicinal Chemistry, 2019):
# Values joined by “and” are separate entries in the source; they are usually repeats but may differ in a detail not shown here. Equal entries are not always repeated.
# Key:
# [1] = system: phosphorylation of ERK in RAW 264.7 cells; test: Western blot, LPS-induced phosphorylation of ERK; assay type: cell-based, mouse
# Method: RAW 264.7 cells (5 × 10^5 cells/well) plated onto 6-well plates were incubated for 24 h and treated with 7.5, 15.0 or 30.0 µM of compound 6p for 30 min and then stimulated with […] of LPS for 24 h. The cells were collected and washed three times with ice-cold PBS. The cells were treated with a cell lysis buffer [50 mM Tris (pH 7.6), 150 mM NaCl, 5 mM EDTA (pH 8.0), 0.6% NP-40, 1 mM Na3VO4, 20 mM β-glycerophosphate, 1 mM phenylmethylsulfonyl fluoride, 2 mM p-nitrophenyl phosphate, and 1:25 Complete Mini Protease Inhibitor cocktail (Boehringer, Mannheim,Germany)] and kept on ice for 30 min. The cell lysates were centrifuged (12,000 g at 4 °C) for 5 min to obtain a cytosolic fraction. The protein concentration was determined by BCA protein assay kit (Beyotime, Haimen, China). Aliquots of the lysates were separated on 10% sodium dodecyl sulphate (SDS)-polyacrylamide gel electrophoresis (PAGE) and then electro blotted onto a polyvinylidene difluoride (PVDF) membrane. The blots were blocked with 5% (w/v) non-fat dry milk for 2 h at 37 °C, followed by incubation with specific primary antibody at 4 °C overnight. […] Blots were again washed with TTBS and the immune active proteins were detected using ECL plus (Thermo, USA). […] Results are expressed as the relative ratio of the specific band compared with the internal reference.
# [2] = system: carrageenan-induced paw oedema; test: Carrageenan-induced paw oedema model; assay type: in vivo, rats; conditions: 25 mg/kg p.o., n = 4
# From the text: The animal procedures were in strict accordance with the National Institutes of Healthy Guidelines for the Care and Use of Laboratory Animals (NIH Publication No. 85-23, revised 1996) and were approved by the Institutional Animal Care and Utilisation Committee of Yanbian University. Male albino rats weighing 280–300 gwere obtained from Animal Department of Yanbian University . They were kept in the animal house under standard condition of light and temperature with free access to food and water. The animals were randomly divided into five groups (control, D1, 6p, ibuprofen and celecoxib group) The groups with D1, 6p, ibuprofen and celecoxib were administered oral administration (p.o.) 25 mg/kg in a vehicle of 0.5% methylcellulose, respectively. The negative control group was treated with the same vehicle (0.5% methylcellulose). A solution of carrageenan (0.1 ml, 1.0% w/v in 0.9% of normal saline) was injected into the subplanter region of the left hind paw under light ether anaesthesia 1 h after oral administration (p.o.) of the test compound (at a dose level of 25 mg/kg body weight). The paw volume was measured at hourly interval for 5 h (0, 1, 3 and 5 h) and the percent inhibition of oedema was calculated using formula: %Inhibition=(Vt−Vo)control−(Vt−Vo)tested compound /(Vt−Vo)control×100 where, • Vo = volume of oedema at zero time interval. • Vt = volume of oedema at specific time interval.
# [3] = system: IL-6 production in LPS-stimulated RAW264.7 cells; test: Cytokine production assay (ELISA), IL-6; assay type: cell-based, mouse
# Method: RAW264.7 cells were seeded at 3 × 10^5 cells/well in a 48-well microplate and incubated overnight.The cells were pre-treated with the different concentrations of the test compunds (3, 7.5, 10 or 30 µM) for 30 min before the stimulation with LPS (1 µg/mL). According to the protocol of the manufacturer, supernatants were harvested at the 24th hour for the assay of TNF-α or IL-6 with ELISA kits (BD Biosciences, San Diego, CA, USA). Briefly, 100 µL of biotinylated antibody reagent and the culture supernatants were added to anti-mouse TNF-α or IL-6 precoated 96-well plates, and the plates were incubated for 2 h at RT. The plate was washed with a washing buffer and subsequently incubated with 100 µL of the streptavidin-HRP solution for 1 h at RT. The plate was washed, and incubated with 100 µL of TMB substrate solution for 30 min at RT in the dark. The reaction was stopped by adding 50 µL of stop solution, and then the absorbance was measured at 450 nm by a plate reader. A standard curve was produced for each assay plate using serially diluted recombinant IL-6.
# [4] = system: gastric mucosa (stomach lesions); test: Ulcerogenic effect; assay type: in vivo; conditions: 25 mg/kg p.o. once a day for three days, rats
# Method: The lead compound D1 and the newly synthesised compound 6p were subjected to in vivo testing to measure their ulcerogenic effect in comparison to celecoxib and ibuprofen. Male albino rats (220–250 g) divided into 5 groups (control, D1, 6p, ibuprofen and celecoxib group) of five rats each. The groups with D1, 6p, ibuprofen, and celecoxib were administered oral administration (p.o.) 25 mg/kg in a vehicle of 0.5% methylcellulose, respectively. The negative control group was treated with the same vehicle (0.5% methylcellulose). All groups were orally administered once a day for three consecutive days. Animals were sacrificed by diethyl ether 6 h after the last dose and the stomach was removed. An opening at the greater curvature was made and the stomach was cleaned by washing with cold saline and inspected with a three-time magnifying lens for any evidence of hyperaemia, haemorrhage, definite haemorrhagic erosion, or ulcer. An arbitrary scale was used to calculate the ulcer index which indicates the severity of the stomach lesions The % ulceration for each group was calculated as follows: % Ulceration = Number of animals bearing ulcer in a group/Total number of animals in the same group ×100.
smiles,measurement,setting,value
"COc1cc(Cn2c(=O)c3nnc(C(N)=O)n3c3ccccc32)cc(OC)c1OC [6p, 5-(3,4,5-trimethoxybenzyl)-4-oxo-4,5-dihydro-[1,2, 4]triazolo[4,3-a]quinoxaline-1-carboxamide]",phosphorylation of ERK,"[1]; 30 µM, p < .001",markedly diminished
same,"LPS-induced phosphorylation of ERK, concentration dependence","[1]; 7.5, 15 and 30 µM",concentration-dependent manner
same,% of oedema inhibition (% mean ± SD),[2]; 1 h,37.01 ± 8.45%
same,% of oedema inhibition (% mean ± SD),"[2]; 3 h, 25 mg/kg",50.83% and 50.83 ± 3.47%
same,% of oedema inhibition (% mean ± SD),[2]; 5 h,38.24 ± 6.04%
same,production of IL-6,"[3]; 3 µM, p < .001",significantly inhibited
same,LPS-induced increase in IL-6 levels,"[3]; LPS 1 µg/mL, 24 h, different concentrations",inhibited in a concentration-dependent manner
same,melting point,,286 to 288 °C
same,% ulceration,[4],20%
